Laboratory results from BindingDB's records for doi:10.1021/acsmedchemlett.6b00306 (The University of Queensland, 2016).

Molecular target: T1, Proteinase-activated receptor 2 (Homo sapiens, UniProt P55085)
T1 sequence (P55085 whole entry): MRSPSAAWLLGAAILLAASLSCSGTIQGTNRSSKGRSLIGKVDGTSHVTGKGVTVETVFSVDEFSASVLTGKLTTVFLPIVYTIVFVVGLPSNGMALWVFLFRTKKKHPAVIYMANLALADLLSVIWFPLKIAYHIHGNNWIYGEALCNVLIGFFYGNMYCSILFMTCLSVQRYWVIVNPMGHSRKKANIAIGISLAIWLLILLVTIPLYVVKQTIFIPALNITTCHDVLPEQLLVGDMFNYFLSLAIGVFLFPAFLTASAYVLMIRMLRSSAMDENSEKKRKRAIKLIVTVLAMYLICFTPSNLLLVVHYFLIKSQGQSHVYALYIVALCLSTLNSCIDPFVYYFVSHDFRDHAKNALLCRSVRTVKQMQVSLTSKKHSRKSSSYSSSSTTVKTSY
Assay: Antagonist activity at PAR2 in human HT-29 cells assessed as inhibition of 2f-LIGRLO-NH2-stimulated intracellular calcium release preincubated for 30 mins followed by 2f-LIGRLO-NH2 stimulation measured for 60 sec by Fluo-3 AM dye based FLIPR assay

- IC50: 7.94 µM
Structure (SMILES): CC[C@H](C)[C@H](NC(=O)[C@H](CC1CCCCC1)NC(=O)c1ccno1)C(=O)N1CCCC[C@H]1C(=O)NC(C)(C)C
